Source: patent US9988379B2, “GPR40 receptor agonist, methods of preparing the same, and pharmaceutical compositions containing the same as an active agent” (LG CHEM, LTD., priority 2012, dated 2018)

Target: T1, human GPR40 (Homo sapiens, UniProt O14842)
T1 construct: expressed in transfected cells; host or cells: CHO-K1
Assay: Induction of Ca2+ (calcium flux assay) using human GPR40 expression cell line
Type: cell-based
Conditions: read-out: EC0.5
Protocol: Evaluation of the Test Compounds for Induction of Ca^2+ Using Human GPR40 Expression Cell Line
The cell line expressing human GPR40 was generated by transfection of the GPR40 expression vector into CHO-K1 cell, and used in the following calcium flux assay.
The cell line was cultured in cell-culture medium (F-12 (Invitrogen) supplemented with 10% (v/v) FBS (Fetal Bovine Serum; Invitrogen), 0.5 mg/ml Geneticin (Invitrogen) and 1% (v/v) Antibiotic-Antimycotic solution (Invitrogen)) under the condition of 5% CO2 and 37° C. For calcium flux assay, the cells were diluted with the cell-culture medium to a concentration of 5×10^5 cells/ml, and the diluted cell suspension was dispensed in amount of 100 μl/well to a 96-well transparent bottom black polystyrene cell culture plate (Corning) and then cultured for 24 hours. The following concentrations of test compounds were added to these cells, and then the changes in intracellular calcium concentration were measured by FlexStation II384 (Molecular Devices). The following solution was prepared before the measurement.
First, a buffer solution for assay was prepared for use in the manufacture of fluorescent dye solution. This buffer solution was prepared by adding 1M HEPES solution (Invitrogen) to HBSS (Hanks' Balanced Salt Solution) (Invitrogen) and then adding 1M NaOH (Nacalai Tesque) to adjust pH to 7.4. Then the fluorescent dye solution was prepared according to the manufacturer's instruction attached to Calcium 5 Assay Kit (Molecular Devices), and the final DMSO concentration was adjusted to 2%.
The fluorescent dye solution was added in an amount of 100 μl/well to supernatant of the cell culture plate cultured for 24 hours. The plate was cultured for 1 hour under the condition of 5% CO2 and 37° C. so that the fluorescent dye was inserted into the cell.
Test compounds (i.e., the compounds prepared in the Examples) dissolved in dimethyl sulfoxide (DMSO ACROS) were diluted 200-fold in the buffer solution for assay to prepare compound solutions corresponding to the respective concentrations. […] 50 μl of the prepared sample solutions was added to each well of 96-well polypropylene plates (NUNC), and thereby a compound plate was prepared. Finally, the compound plate and the cell culture plate cultured for 1 hour with the fluorescent dye were placed in FlexStation II384.
After the above pre-treatment, the change in the intracellular calcium concentration when each concentration of the test compound solutions was added at 50 μl was measured by FlexStation II^384.
Then, the relative activity values depending on the concentration of the compound were plotted using Prism 4 software (GraphPad) to calculate the EC0.5 value.

T1 sequence (O14842 whole entry): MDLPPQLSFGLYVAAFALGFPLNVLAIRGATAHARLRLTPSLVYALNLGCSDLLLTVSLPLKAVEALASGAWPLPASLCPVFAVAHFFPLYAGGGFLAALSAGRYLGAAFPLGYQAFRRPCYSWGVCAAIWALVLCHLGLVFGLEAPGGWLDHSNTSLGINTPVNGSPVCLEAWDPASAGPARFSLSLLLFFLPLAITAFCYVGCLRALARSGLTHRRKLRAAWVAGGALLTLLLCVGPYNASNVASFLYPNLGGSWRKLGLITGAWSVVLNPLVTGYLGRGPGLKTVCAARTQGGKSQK

Row | SMILES | EC50 [µM]
1 | CC#C[C@@H](CC(=O)O)c1ccc(OCc2ccc3ccn(Cc4c(C)cccc4C)c3c2C)cc1 [Example 39, (S)-3-{4-[1-(2,6-dimethyl-benzyl)-7-methyl-1H-indol-6-ylmethoxy]-phenyl}-hex-4-ynoic acid] | 0.2
2 | CC#C[C@@H](CC(=O)O)c1ccc(OCc2ccc3ccn(Cc4ccccc4)c3c2Cl)cc1 [Example 40, (S)-3-[4-(1-benzyl-7-chloro-1H-indol-6-ylmethoxy)-phenyl]-hex-4-ynoic acid] | 0.06
3 | CC#C[C@@H](CC(=O)O)c1ccc(OCc2cc3c(ccn3Cc3ccccc3)cc2F)cc1 [Example 41, (S)-3-[4-(1-benzyl-5-fluoro-1H-indol-6-ylmethoxy)-phenyl]-hex-4-ynoic acid] | 0.001 to 0.05
4 | CC#C[C@@H](CC(=O)O)c1ccc(OCc2ccc3ccn(Cc4cccc(C(F)(F)F)c4)c3c2C)cc1 [Example 43, (S)-3-{4-[7-methyl-1-(3-trifluoromethyl-benzyl)-1H-indol-6-ylmethoxy]-phenyl}-hex-4-ynoic acid] | 0.05 to 0.5
5 | CC#C[C@@H](CC(=O)O)c1ccc(OCc2ccc3ccn(Cc4ccc(CS(C)(=O)=O)cc4)c3c2C)cc1 [Example 45, (S)-3-{4-[1-(4-methanesulfonylmethyl-benzyl)-7-methyl-1H-indol-6-ylmethoxy]-phenyl}-hex-4-ynoic acid] | 0.001 to 0.05
6 | CC#C[C@@H](CC(=O)O)c1ccc(OCc2cccc3nn(Cc4ccccc4)cc23)cc1 [Example 47, (S)-3-[4-(2-benzyl-2H-indazol-4-ylmethoxy)-phenyl]-hex-4-ynoic acid] | 0.001 to 0.05
7 | CC#C[C@@H](CC(=O)O)c1ccc(OCc2cccc3c2cnn3Cc2ccccc2)cc1 [Example 48, (S)-3-[4-(1-benzyl-1H-indazol-4-ylmethoxy)-phenyl]-hex-4-ynoic acid] | 0.001 to 0.05
8 | CC#C[C@@H](CC(=O)O)c1ccc(OCc2c(F)cc3ccn(Cc4ccccc4)c3c2C)cc1 [Example 49, (S)-3-[4-(1-benzyl-5-fluoro-7-methyl-1H-indol-6-ylmethoxy)-phenyl]-hex-4-ynoic acid] | 0.05 to 0.5
9 | CC#C[C@@H](CC(=O)O)c1ccc(OCc2ccc3ccn(Cc4ccc(F)c(F)c4)c3c2C)cc1 [Example 51, (S)-3-{4-[1-(3,4-difluoro-benzyl)-7-methyl-1H-indol-6-ylmethoxy]-phenyl}-hex-4-ynoic acid] | 0.05 to 0.5
10 | O=C(O)CCc1ccc(OCc2cccc3c2ccn3Cc2ccccc2)cc1F [Example 54, 3-[4-(1-benzyl-1H-indol-4-ylmethoxy)-2-fluoro-phenyl]-propanoic acid] | 0.05 to 0.5
11 | Cc1c(COc2ccc(CCC(=O)O)c(F)c2)ccc2ccn(Cc3ccccc3)c12 [Example 55, 3-[4-(1-benzyl-7-methyl-1H-indol-6-ylmethoxy)-2-fluoro-phenyl]-propanoic acid] | 0.001 to 0.05
12 | CC#C[C@@H](CC(=O)O)c1ccc(OCc2ccc3cn(Cc4ccccc4)nc3c2)cc1 [Example 58, (S)-3-[4-(2-benzyl-2H-indazol-6-ylmethoxy)-phenyl]-hex-4-ynoic acid] | 0.001 to 0.05
13 | CC#C[C@@H](CC(=O)O)c1ccc(OCc2ccc3cnn(Cc4ccccc4)c3c2)cc1 [Example 59, (S)-3-[4-(1-benzyl-1H-indazol-6-ylmethoxy)-phenyl]-hex-4-ynoic acid] | 0.001 to 0.05
14 | CC#C[C@@H](CC(=O)O)c1ccc(OCc2ccc3c(F)cn(Cc4ccccc4)c3c2C)cc1 [Example 62, (S)-3-[4-(1-benzyl-3-fluoro-7-methyl-1H-indol-6-ylmethoxy)-phenyl]-hex-4-ynoic acid] | 0.05 to 0.5

The next lines start with the values.

Row | EC50 [µM] | SMILES
15 | 0.06 | CC#C[C@@H](CC(=O)O)c1ccc(OCc2ccc3ccn(Cc4ccccc4C)c3c2C)cc1 [Example 36, (S)-3-{4-[7-methyl-1-(2-methyl-benzyl)-1H-indol-6-ylmethoxy]-phenyl}-hex-4-ynoic acid]
16 | 0.04 | CC#C[C@@H](CC(=O)O)c1ccc(OCc2ccc3ccn(Cc4ccccc4F)c3c2C)cc1 [Example 37, (S)-3-{4-[1-(2-fluoro-benzyl)-7-methyl-1H-indol-6-ylmethoxy]-phenyl}-hex-4-ynoic acid]
17 | 0.09 | CC#C[C@@H](CC(=O)O)c1ccc(OCc2ccc3ccn(Cc4ccccc4Cl)c3c2C)cc1 [Example 38, (S)-3-{4-[1-(2-chloro-benzyl)-7-methyl-1H-indol-6-ylmethoxy]-phenyl}-hex-4-ynoic acid]
18 | 0.05 to 0.5 | CC#C[C@@H](CC(=O)O)c1ccc(OCc2ccc3ccn(Cc4cccc(F)c4)c3c2C)cc1 [Example 42, (S)-3-{4-[1-(3-fluoro-benzyl)-7-methyl-1H-indol-6-ylmethoxy]-phenyl}-hex-4-ynoic acid]
19 | 0.001 to 0.05 | CC#C[C@@H](CC(=O)O)c1ccc(OCc2ccc3ccn(Cc4cnc(C)cn4)c3c2C)cc1 [Example 44, (S)-3-{4-[7-methyl-1-(5-methyl-pyrazin-2-ylmethyl)-1H-indol-6-ylmethoxy]-phenyl}-hex-4-ynoic acid]
20 | 0.001 to 0.05 | CC#C[C@@H](CC(=O)O)c1ccc(OCc2ccc3ccn(Cc4ccc(Cl)nc4)c3c2C)cc1 [Example 46, (S)-3-{4-[1-(6-chloro-pyridin-3-ylmethyl)-7-methyl-1H-indol-6-ylmethoxy]-phenyl}-hex-4-ynoic acid]
21 | 0.05 to 0.5 | CC#C[C@@H](CC(=O)O)c1ccc(OCc2ccc3ccn(Cc4ccc(F)cc4)c3c2C)cc1 [Example 50, (S)-3-{4-[1-(4-fluoro-benzyl)-7-methyl-1H-indol-6-ylmethoxy]-phenyl}-hex-4-ynoic acid]
22 | 0.05 to 0.5 | CC#C[C@@H](CC(=O)O)c1ccc(OCc2ccc3ccn(Cc4cc(F)cc(F)c4)c3c2C)cc1 [Example 52, (S)-3-{4-[1-(3,5-difluoro-benzyl)-7-methyl-1H-indol-6-ylmethoxy]-phenyl}-hex-4-ynoic acid]
23 | 0.05 to 0.5 | CC#C[C@@H](CC(=O)O)c1ccc(OCc2ccc3ccn(Cc4ccc(F)cc4F)c3c2C)cc1 [Example 53, (S)-3-{4-[1-(2,4-difluoro-benzyl)-7-methyl-1H-indol-6-ylmethoxy]-phenyl}-hex-4-ynoic acid]
24 | 0.001 to 0.05 | CC#C[C@@H](CC(=O)O)c1ccc(OCc2ccc3ccn(Cc4cscn4)c3c2C)cc1 [Example 56, (S)-3-[4-(7-methyl-1-thiazol-4-ylmethyl-1H-indol-6-ylmethoxy]-phenyl}-hex-4-ynoic acid]
25 | 0.001 to 0.05 | CC#C[C@@H](CC(=O)O)c1ccc(OCc2ccc3ccn(Cc4csc(C)n4)c3c2C)cc1 [Example 57, (S)-3-{4-[7-methyl-1-(2-methyl-thiazol-4-ylmethyl)-1H-indol-6-ylmethoxy]-phenyl}-hex-4-ynoic acid]
26 | 0.001 to 0.05 | CC#C[C@@H](CC(=O)O)c1ccc(OCc2ccc3ccn(Cc4cnccn4)c3c2C)cc1 [Example 60, (S)-3-[4-(7-methyl-1-pyrazin-2-ylmethyl-1H-indol-6-ylmethoxy)-phenyl]-hex-4-ynoic acid]
27 | 0.001 to 0.05 | CC#C[C@@H](CC(=O)O)c1ccc(OCc2ccc3ccn(Cc4ccncn4)c3c2C)cc1 [Example 61, (S)-3-[4-(7-methyl-1-pyrimidin-4-ylmethyl-1H-indol-6-ylmethoxy)-phenyl]-hex-4-ynoic acid]
28 | 0.001 to 0.05 | CC#C[C@@H](CC(=O)O)c1ccc(OCc2ccc3ccn(Cc4cnn(C)c4)c3c2C)cc1 [Example 63, (S)-3-{4-[7-methyl-1-(1-methyl-1H-pyrazol-4-ylmethyl)-1H-indol-6-ylmethoxy)-phenyl]-hex-4-ynoic acid]
